# Laboratory results reported in patent publication US20190169620A1, “Treatment of HER2-Dependent Cancers by SORL1 Inhibition” (TURUN YLIOPISTO, priority 2017, published 2019).
# Entries after “also recorded” stand apart in the source; their conditions may differ.
# Tests used:
# [1] = tested on: 5637 bladder cancer cells; assay: Colony formation assay of SORLA silenced 5637 treated with CADs; assay type: cell-based; details: drug for 7 days combined with SORLA silencing
# Experimental: Transient SORLA (with two individual siRNAs) or scramble silencing was performed for 5637 bladder cancer cells. After 48 hours of silencing, 20 000 cells per well were plated on colony formation assay on 12-well plate. […] DMSO was used as control. Cells were treated for 7 days and drugs including media was replenished between 3-4 days of culture. After 7 days, cells were stained with 0.2% Crystal Violet in 10% EtOH for 10 min RT. Cells were washed extensively with PBS and dried. Wells were scanned and confluency was measured by using Image J colony area plug-in.
# [2] = tested on: HER2-amplified breast cancer cells
# Experimental: Transient SORLA (with two individual siRNAs) or scramble silencing was performed for 5637 bladder cancer cells. After 48 hours of silencing, 3000 cells per well were plated on 96-well plate. Cells were treated with increasing concentration of Ebastine and Loratadine for 48 hours. After 48 hours of treatment, WST-8 reagent (Sigma, 96992) was added 10 μl/well and absorbance 450 nm was measured by plate reader after 1-2 h of incubation at 37° C. with 5% CO2. Medium without cells was used as background and the A450 of background was subtracted from the samples. Relative viability was calculated by normalizing the A450 values of drug treated to DMSO treated cells. IC50 values were calculated by GraphPad using nonlinear regression to fit the data to the log(inhibitor) vs. response (variable slope) curve.
# [3] = tested on: LAMP1- and CD63 (LAMP3)-positive lysosomes; assay: Immunofluorescent imaging of lysosome aggregation (LAMP1, CD63); assay type: cell-based; details: Lapatinib 24 h, 0.5 mM
# Experimental: (§1) Cells were plated on ibidi 8-well dishes or in some cases in […] ibidi dishes. Cells were fixed with 4% paraformaldehyde (PFA) in phosphate buffer saline (PBS) for 10 min at room temperature. PFA was quenched by incubating with 50 mM NH4Cl for 15 min at room temperature. Cells were blocked and permeabilized with 30% horse serum in PBS +0.3% Triton X-100 15 min at room temperature. Primary antibodies were diluted in 30% horse serum and incubated over night at +4° C. HER2 staining was performed with Herceptin (Roche) or with mouse monoclonal antibody (ThermoScientific; MA5-14057) in dilution of 1:300, LAMP1 antibody (Santa Cruz; SC-20011 (H4A3)) was diluted 1:50, rabbit monoclonal SORLA antibody (CM Petersen Lab, Arhus University) in dilution of 1:300, goat anti-EEA-1 (Santa Cruz; sc-6415) 1:50, goat anti-VPS35 (Abcam; ab10099) 1:300, mouse anti-CD63 (Hybridoma Bank; H5C6) 1:300 and rabbit anti-TGN46 (Abcam; ab50595) 1:300. After primary antibody incubation, cells were washed three times with PBS for 5 min at room temperature and then secondary antibodies were diluted 1:300 in 30% horse serum. […]
# TFEB and LAMP1 = assay: Western blot analysis of TFEB and LAMP1 protein levels; assay type: cell-based; details: SKBR3, lapatinib treatment (24 h)
# Experimental: Protein extracts were sonicated (0.5 min ON/0.5 min OFF totally 5 min with full power) and protein levels were measured by Bio-Rad protein quantification kit. Sample buffer was added and samples were boiled for 5 min at 95° C. heat block. Proteins were separated on 4-20% gradient gel (Bio-Rad) and transferred into nitrocellulose membranes (Bio-Rad) by semi-dry turbo blot (Bio-Rad). Membranes were blocked with 5% milk powder in TBST for 1 hour at room temperature. Primary antibodies were diluted in blocking buffer (ThermoScientific) and PBS (1:1 ratio) mix and incubated over night at +4° C. Following primary antibodies were used: HER2 (Thermo Scientific, MA5-14057), SORLA (BD Transduction Lab, 612633), α-tubulin (Hybridoma Bank).
# MDA-MB-361 cells = assay: Proliferation assay (WST-8), MDA-MB-361; assay type: cell-based; details: MDA-MB-361, lapatinib treated
# Experimental: Cells were plated on 96-well plate (3000 cells/well, 4 replicates per sample) in volume of 100 μl.
# Transfection of siRNAs to silence SORLA or HER2 protein expression: Cells were seeded on 6-well plate day before the transfection (300 000-500 000 cells/well). On next day, transfection mix containing siRNA (20-40 nM of targeting SORLA, 40 nM of HER2 targeting siRNA and 20-40 nM scramble siRNA) and RNAiMAX transfection reagent (Manufacturer) in OptiMEM medium was prepared. The mix was allowed to stand for 15 min at room temperature before adding to the cells on 6 well plate. After 48 hours of transfection cells were used for experiments.
# BT474 cells = assay: Cell cycle analysis (propidium iodide, flow cytometry); assay type: cell-based; details: BT474, 0.5 μM lapatinib for 24 hours; stated as the effect SORLA silencing mimics
# Experimental: BT474 transfected with control siRNA and with two individual siRNA against SORLA (#3 and #4) and BT474 treated with DMSO or with 0.5 μM Lapatinib for 24 hours were trypsinized, spun down and suspended in ice cold PBS (1 ml). Cells were fixed with 70% EtOH (ice cold) by adding 3 ml of 70% EtOH in dropwise manner while gently vortexin the cells. Cells were then stored at +4° C. until propidium iodide (PI) staining was performed. PI (Sigma) staining was performed by preparing 25 μg/ml PI solution in PBS with RNAase A (Qiagen). Cells were washed twice with PBS. After that cells were suspended in PI solution and incubated 10 minutes on ice. Samples were protected from light and kept on ice until flow cytometry analysis. Samples were run with LSR II and cell cycle analysis was performed with FlowJo.
# HER2 = assay: Immunofluorescent imaging of HER2 localization; assay type: cell-based; details: BT474, primaquine 24 h, 0.3 and 0.6 mM
# Experimental: as §1
smiles,measurement,setting,value
CC(C)(C)c1ccc(C(=O)CCCN2CCC(OC(c3ccccc3)c3ccccc3)CC2)cc1 [Ebastine],5637 bladder cancer colony growth,[1],significant synergistic effects
same,cell viability,"[2]; Ebastine 48 hours in combination with SORLA silencing, irrespective of anti-HER2 therapy sensitivity",synergistic effect on cell viability; also recorded: significantly decreased cell viability
same,cell death in vitro,[2]; Ebastine combined with SORLA silencing,significantly increased cell death
CCOC(=O)N1CCC(=C2c3ccc(Cl)cc3CCc3cccnc32)CC1 [Loratadine],5637 bladder cancer colony growth,[1],significant synergistic effects
CS(=O)(=O)CCNCc1ccc(-c2ccc3ncnc(Nc4ccc(OCc5cccc(F)c5)c(Cl)c4)c3c2)o1 [lapatinib],lysosome aggregation,[3]; BT474 (sensitive),induced lysosome aggregation
same,lysosome aggregation,[3]; MDA-MB-361 (resistant),not in the resistant MDA-MB-361 cells
same,LAMP1 protein levels,TFEB and LAMP1,similarly increased
same,proliferation / drug sensitivity,MDA-MB-361 cells,resistant to Lapatinib
same,cell cycle distribution,BT474 cells,increased accumulation of cells at G1/G0 and decreased number of cells in S phase
COc1cc(NC(C)CCCN)c2ncccc2c1 (stereo not shown) [primaquine],HER2 localization,HER2,accumulation of intracellular HER2
